# Assay: recombinant UMI read abundance after kanamycin selection (control-corrected) (log10(CPM+1)); higher = more efficient recombination; extreme values may be limits of the assay; sequences stand for … in AGTGCAGAGAAAATCGGCCAGTTTTCTCTGCCTGCAGTCCGCATGCCGTGGGACCCCTTGGGTTCTAACCTGTTGCCTAGATTTATGCAGCGGACTGCCTTTCTCCCAAAGTGATAAACCGG…AGGTTGGTTTCACT; site = the 11-nt donor
# Summary of the method: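 Under IPTG (0.07 mM) plus kanamycin, or without selection, Escherichia coli carrying a UMI-tagged donor and donor-binding-loop pair library and a target plasmid for the IS621 bridge recombinase were plated in two replicates. Recombinant UMIs were PCR-amplified across the donor–target junction and sequenced. Counts were converted to CPM, averaged over replicates, scaled by control-derived factors and reported as log10(CPM+1).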
# 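Further: IS621 bridge recombinase in Escherichia coli cells against a fixed T5 target plasmid.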
row,Sequence,recombinant UMI read abundance (log10)
1,GCTACTGCATGGACCGGTTTTCCCGGTAATCCGTATTTGAC (site GCTACTGCTGA),0
2,GCTACTGCATGGACCGGTTTTCCCGGTAATCCGTATTTGAC (site GCTACTGCTGC),0
3,GCTACTGCATGGACCGGTTTTCCCGGTAATCCGTATTTGAC (site GCTACTGCTGG),0
4,GCTACTGCATGGACCGGTTTTCCCGGTAATCCGTATTTGAC (site GCTACTGCTGT),2.07
5,GCTACTTCATGGACCGGTTTTCCCGGTAATCCGTATTTGCC (site GCTACTACTGG),0
6,GCTACTTCATGGACCGGTTTTCCCGGTAATCCGTATTTGCC (site GCTACTCCTGG),0
7,GCTACTTCATGGACCGGTTTTCCCGGTAATCCGTATTTGCC (site GCTACTGCTGG),0
8,GCTACTTCATGGACCGGTTTTCCCGGTAATCCGTATTTGCC (site GCTACTTCTGG),1.34
9,GCTAGAGCATGGACCGGTTTTCCCGGTAATCCGTATTTGTA (site GCTAGAGCTTA),2.58
10,GCTAGGGCATGGACCGGTTTTCCCGGTAATCCGTATTTGTT (site GCTAGGGCTAA),1.53
11,GCTCGCCCATGGACCGGTTTTCCCGGTAATCCGTATTTGAT (site GCTAGCCCTAT),0.0115
12,GCTCGCCCATGGACCGGTTTTCCCGGTAATCCGTATTTGAT (site GCTCGCCCTAT),0.567
13,GCTCGCCCATGGACCGGTTTTCCCGGTAATCCGTATTTGAT (site GCTGGCCCTAT),0.019
14,GCTCGCCCATGGACCGGTTTTCCCGGTAATCCGTATTTGAT (site GCTTGCCCTAT),0.00792
15,GCTCGTACATGGACCGGTTTTCCCGGTAATCCGTATTTGAT (site GCTCGTACTAT),1.1
16,GCTCTGCCATGGACCGGTTTTCCCGGTAATCCGTATTTGCG (site GCTCTGCCTCG),0.0154
17,GCTGCAGCATGGACCGGTTTTCCCGGTAATCCGTATTTGTC (site GCTGCAGCTGA),2.59
18,GCTGGAACATGGACCGGTTTTCCCGGTAATCCGTATTTGAC (site GCTGGAACTGT),1.62
19,GCTGTGTCATGGACCGGTTTTCCCGGTAATCCGTATTTGGA (site GCTGTGTCTTC),1.46
20,GCTTAGACATGGACCGGTTTTCCCGGTAATCCGTATTTGGC (site GCTTAGACTGC),2.37
21,GCTTCCCCATGGACCGGTTTTCCCGGTAATCCGTATTTGAT (site GCTTACCCTAT),0.0108
22,GCTTCCCCATGGACCGGTTTTCCCGGTAATCCGTATTTGAT (site GCTTCCCCTAT),0.569
23,GCTTCCCCATGGACCGGTTTTCCCGGTAATCCGTATTTGAT (site GCTTGCCCTAT),0.00758

row,Sequence,recombinant UMI read abundance (log10)
1,GCTTCCCCATGGACCGGTTTTCCCGGTAATCCGTATTTGAT (site GCTTTCCCTAT),0.028
2,GCTTCCCCATGGACCGGTTTTCCCGGTAATCCGTATTTGCA (site GCTTCCCCTTG),1.15
3,GCTTCTGCATGGACCGGTTTTCCCGGTAATCCGTATTTGCC (site GCTACTGCTGG),0.647
4,GCTTCTGCATGGACCGGTTTTCCCGGTAATCCGTATTTGCC (site GCTCCTGCTGG),1.82
5,GCTTCTGCATGGACCGGTTTTCCCGGTAATCCGTATTTGCC (site GCTGCTGCTGG),0
6,GCTTCTGCATGGACCGGTTTTCCCGGTAATCCGTATTTGCC (site GCTTCTGCTGG),1.86
7,GCTTGCCCATGGACCGGTTTTCCCGGTAATCCGTATTTGGT (site GCTTGCCCTAA),0.00835
8,GCTTGCCCATGGACCGGTTTTCCCGGTAATCCGTATTTGGT (site GCTTGCCCTAC),0.017
9,GCTTGCCCATGGACCGGTTTTCCCGGTAATCCGTATTTGGT (site GCTTGCCCTAG),0
10,GCTTGCCCATGGACCGGTTTTCCCGGTAATCCGTATTTGGT (site GCTTGCCCTAT),0
11,GCTTTACCATGGACCGGTTTTCCCGGTAATCCGTATTTGTT (site GCTTTACCTAA),0.0408
12,GCTTTAGCATGGACCGGTTTTCCCGGTAATCCGTATTTGTT (site GCTTTAGCTAA),0.00318
13,GGAAATCCATGGACCGGTTTTCCCGGTAATCCGTATTTGAA (site GGAAATCCTTT),0.994
14,GGAAATCCATGGACCGGTTTTCCCGGTAATCCGTATTTGAA (site GGCAATCCTTT),0
15,GGAAATCCATGGACCGGTTTTCCCGGTAATCCGTATTTGAA (site GGGAATCCTTT),0
16,GGAAATCCATGGACCGGTTTTCCCGGTAATCCGTATTTGAA (site GGTAATCCTTT),0
17,GGAAATCCATGGACCGGTTTTCCCGGTAATCCGTATTTGGT (site GGAAATCCTAC),0
18,GGAACGGCATGGACCGGTTTTCCCGGTAATCCGTATTTGGA (site GGAACGGCTTC),1.09
19,GGAAGCTCATGGACCGGTTTTCCCGGTAATCCGTATTTGTT (site GGAAGCTCTAA),2.26
20,GGAATGGCATGGACCGGTTTTCCCGGTAATCCGTATTTGGT (site GGAATGGCTAC),1.5
21,GGAATGGCATGGACCGGTTTTCCCGGTAATCCGTATTTGGT (site GGACTGGCTAC),0.00772
22,GGAATGGCATGGACCGGTTTTCCCGGTAATCCGTATTTGGT (site GGAGTGGCTAC),0.00394
23,GGAATGGCATGGACCGGTTTTCCCGGTAATCCGTATTTGGT (site GGATTGGCTAC),0.00922

row,Sequence,recombinant UMI read abundance (log10)
1,GGAATTGCATGGACCGGTTTTCCCGGTAATCCGTATTTGCC (site GGAATTGCTGG),0
2,GGACACGCATGGACCGGTTTTCCCGGTAATCCGTATTTGCT (site GGACACGCTAG),2.59
3,GGACAGACATGGACCGGTTTTCCCGGTAATCCGTATTTGCC (site GGAAAGACTGG),0
4,GGACAGACATGGACCGGTTTTCCCGGTAATCCGTATTTGCC (site GGACAGACTGG),2.42
5,GGACAGACATGGACCGGTTTTCCCGGTAATCCGTATTTGCC (site GGAGAGACTGG),0
6,GGACAGACATGGACCGGTTTTCCCGGTAATCCGTATTTGCC (site GGATAGACTGG),1.84
7,GGACAGTCATGGACCGGTTTTCCCGGTAATCCGTATTTGTC (site GGACAGTCTGA),3.04
8,GGACCAACATGGACCGGTTTTCCCGGTAATCCGTATTTGTA (site GGACCAACTTA),1.09
9,GGACCAACATGGACCGGTTTTCCCGGTAATCCGTATTTGTA (site GGCCCAACTTA),0.00566
10,GGACCAACATGGACCGGTTTTCCCGGTAATCCGTATTTGTA (site GGGCCAACTTA),0.0083
11,GGACCAACATGGACCGGTTTTCCCGGTAATCCGTATTTGTA (site GGTCCAACTTA),0.0428
12,GGACGTACATGGACCGGTTTTCCCGGTAATCCGTATTTGTG (site GGACGTACTCA),1.09
13,GGACTGGCATGGACCGGTTTTCCCGGTAATCCGTATTTGGT (site GGAATGGCTAC),0.00409
14,GGACTGGCATGGACCGGTTTTCCCGGTAATCCGTATTTGGT (site GGACTGGCTAC),0.371
15,GGACTGGCATGGACCGGTTTTCCCGGTAATCCGTATTTGGT (site GGAGTGGCTAC),0.0324
16,GGACTGGCATGGACCGGTTTTCCCGGTAATCCGTATTTGGT (site GGATTGGCTAC),0.0234
17,GGACTTCCATGGACCGGTTTTCCCGGTAATCCGTATTTGGT (site GGACTTCCTAC),1.16
18,GGAGAGACATGGACCGGTTTTCCCGGTAATCCGTATTTGCC (site GGAAAGACTGG),0
19,GGAGAGACATGGACCGGTTTTCCCGGTAATCCGTATTTGCC (site GGACAGACTGG),0
20,GGAGAGACATGGACCGGTTTTCCCGGTAATCCGTATTTGCC (site GGAGAGACTGG),0
21,GGAGAGACATGGACCGGTTTTCCCGGTAATCCGTATTTGCC (site GGATAGACTGG),0
22,GGAGATTCATGGACCGGTTTTCCCGGTAATCCGTATTTGAC (site GGAGATTCTGT),0
